Legend:
[1] = logP by HPLC on reversed-phase column (C 18), EEC Directive 79/831 Annex V.A8; assay type: physicochemical; settings: reversed-phase HPLC column (C 18); acidic range, pH 2.3, 0.1% aqueous phosphoric acid and acetonitrile, 43° C. (marked a)
Procedure: The logP values given in the Preparation Examples and Tables above were determined in accordance with EEC Directive 79/831 Annex V.A8 by HPLC (High Performance Liquid Chromatography) on a reversed-phase column (C 18). Temperature: 43° C.
In the acidic range, the determination was carried out at pH 2.3 using the mobile phases 0.1% aqueous phosphoric acid and acetonitrile; linear gradient from 10% acetonitrile to 90% acetonitrile (marked ^a) in the Table).
In the neutral range, the determination was carried out at pH 7.5 using the mobile phases 0.01 molar aqueous phosphate buffer solution and acetonitrile; linear gradient from 10% acetonitrile to 90% acetonitrile (marked ^b) in the Table).

[2] = test system: Puccinia recondita; assay: Puccinia test (wheat)/protective; assay type: in vivo; settings: protective, application rate 250 g/ha, evaluation 10 days after inoculation
Procedure: (§1) To produce a suitable preparation of active compound, 1 part by weight of active compound is mixed with the stated amounts of solvent and emulsifier, and the concentrate is diluted with water to the desired concentration.
To test for protective activity, young plants are sprayed with the preparation of active compound at the stated application rate. After the spray coating has dried on, the plants are sprayed with a conidia suspension of Puccinia recondita. The plants remain in an incubation cabin at 20° C. and 100% relative atmospheric humidity for 48 hours.
The plants are then placed in a greenhouse at a temperature of approximately 20° C. and a relative atmospheric humidity of 80% to promote the development of rust pustules.
(§2) Evaluation is carried out 10 days after the inoculation. 0% means an efficacy which corresponds to that of the control, whereas an efficacy of 100% means that no infection is observed.

[3] = test system: Gloeophyllum trabeum, Coniophora puteana, Poria placenta, Lentinus tigrinus and Coriolus versicolor; assay: Inhibition test on giant colonies of Basidiomycetes; assay type: cell-based; settings: 6 ppm active compound in malt extract peptone agar, 26° C.; read-out: % efficacy (percent inhibition of hyphal growth)
Procedure: Inhibition Test on Giant Colonies of Basidiomycetes Mycelium sections were removed from colonies of Gloeophyllum trabeum, Coniophora puteana, Poria placenta, Lentinus tigrinus and Coriolus versicolor and incubated on an agar medium containing malt extract peptone at 26° C. The inhibition of hyphal growth on active-compound-containing media was compared with the longitudinal growth on media without an addition of active compound and rated as percent inhibition.

[4] = test system: Podosphaera leucotricha; assay: Podosphaera test (apple)/protective; assay type: in vivo; settings: 240 h, protective, application rate 100 g/ha, evaluation 10 days after inoculation, read-out: % efficacy
Procedure: as §1
(§3) To test for protective activity, young plants are sprayed with the preparation of active compound at the stated application rate. After the spray coating has dried on, the plants are inoculated with an aqueous spore suspension of the apple mildew pathogen Podosphaera leucotricha. The plants are then placed in a greenhouse at approximately 23° C. and a relative atmospheric humidity of approximately 70%.
as §2

[5] = test system: Sphaerotheca fuiginea; assay: Sphaerotheca test (cucumber)/protective; assay type: in vivo; settings: Cucumis sativus, 240 h, protective, application rate 100 g/ha, evaluation 10 days after inoculation, read-out: % efficacy
Procedure: as §1
as §3, with “Sphaerotheca fuiginea.” for “the apple mildew pathogen Podosphaera leucotricha.”
as §2

[6] = test system: Venturia inaequalis; assay: Venturia test (apple)/protective; assay type: in vivo; settings: 288 h, protective, application rate 100 g/ha, evaluation 12 days after inoculation, read-out: % efficacy
Procedure: To produce a suitable preparation of active compound, 1 part by weight of active compound is mixed with the stated amount of solvent and emulsifier, and the concentrate is diluted with water to the desired concentration.
To test for protective activity, young plants are sprayed with the preparation of active compound at the stated application rate. After the spray coating has dried on, the plants are inoculated with an aqueous conidia suspension of the apple scab pathogen Venturia inaequalis and then remain in an incubation cabin at approximately 20° C. and 100% relative atmospheric humidity for 1 day.
The plants are then placed in a greenhouse at approximately 21° C. and a relative atmospheric humidity of approximately 90%.
Evaluation is carried out 12 days after the inoculation. 0% means an efficacy which corresponds to that of the control, whereas an efficacy of 100% means that no infection is observed.

[7] = test system: Alternaria solani; assay: Alternaria test (tomato)/protective; assay type: in vivo; settings: protective, application rate 750 g/ha, evaluation 7 days after inoculation
Procedure: as §1
To test for protective activity, young tomato plants are sprayed with the preparation of active compound at the stated application rate. 1 day after the treatment, the plants are inoculated with a spore suspension of Alternaria solani and then remain at 100% rel. humidity and 20° C. for 24 h. The plants then remain at 96% rel. atmospheric humidity and a temperature of 20° C.
Evaluation is carried out 7 days after the inoculation. 0% means an efficacy which corresponds to that of the control, whereas an efficacy of 100% means that no infection is observed.

SMILES	chromatographic logP [1]	% efficacy [2] [%]	Emax at 6 ppm [3] [%]	pest or weed control at 100 g/ha [4] [%]	pest or weed control at 100 g/ha [5] [%]	pest or weed control at 100 g/ha [6] [%]	% efficacy [7] [%]
CO/N=C/c1ccc(-c2cccc(F)c2NC(=O)c2c(C)nn(C)c2F)cc1 [Example 9]	2.51	100	100	–	–	–	–
CO/N=C/c1ccc(-c2ccccc2NC(=O)c2c(C)nn(C)c2F)cc1 [Example 1, 5-fluoro-N-{4′-[(methoxyimino)methyl]-1,1′-biphenyl-2-yl}-1,3-dimethyl-1H-pyrazole-4-carboxamide]	–	100	100	100	100	100	95
CO/N=C(\C)c1ccc(-c2ccccc2NC(=O)c2c(C)nn(C)c2F)cc1 [Example 4, 5-fluoro-N-[4′-(N-methoxyethaneimidoyl)-1,1′-biphenyl-2-yl]-1,3-dimethyl-1H-pyrazole-4-carboxamide]	–	–	100	–	–	–	90
CO/N=C/c1ccc(-c2ccccc2NC(=O)c2c(C)nn(C)c2F)cc1F [Example 3, 5-fluoro-N-{3′-fluoro-4′-[(methoxyimino)methyl]-1,1′-biphenyl-2-yl}-1,3-dimethyl-1H-pyrazole-4-carboxamide]	–	100	100	–	–	–	–

From patent US7348350B2, “Pyrazolyl biphenyl carboxamides and the use thereof for controlling undesirable microorganisms” (Bayer CropScience AG, priority 2000, dated 2008)
